Laboratory results from ChEMBL document CHEMBL4385607, “Structure- and Ligand-Based Discovery of Chromane Arylsulfonamide Nav1.7 Inhibitors for the Treatment of Chronic Pain” (J Med Chem, 2019).

Key:
[1] = Lipophilicity, log D of compound at pH 7.4; type: physicochemical; settings: buffer
[2] = Ratio of drug uptake in Sprague-Dawley rat liver to plasma at 5 mg/kg, po measured up to 8 hrs by LC-MS/MS analysis; type: ADME, organism-based
[3] = Blood clearance in FVB mouse at 1 mg/kg, iv measured upto 6 hrs by LC-MS/MS analysis; type: ADME, organism-based; settings: whole blood
[4] = Plasma clearance in Sprague-Dawley rat at 1 mg/kg, iv measured up to 8 hrs by LC-MS/MS analysis; type: ADME, organism-based
[5] = Volume of distribution at steady state in FVB mouse at 1 mg/kg, iv measured upto 6 hrs by LC-MS/MS analysis; type: ADME, organism-based; settings: in vivo, read-out: Vdss
[6] = Dissociation constant, acidic pKa of compound by spectrophotometric method; type: physicochemical
[7] = Clearance in human hepatocytes at 1 uM measured up to 3 hrs by LC-MS/MS analysis; type: ADME, cell-based, Hepatocyte
[8] = Volume of distribution at steady state in Sprague-Dawley rat at 1 mg/kg, iv measured upto 8 hrs by LC-MS/MS analysis; type: ADME, organism-based; settings: in vivo, read-out: Vdss
[9] = Clearance in Sprague-Dawley rat hepatocytes at 1 uM measured up to 3 hrs by LC-MS/MS analysis; type: ADME, cell-based, Hepatocyte
[10] = Plasma clearance in cynomolgus monkey at 0.5 mg/kg, iv administered as single dose measured upto 24 hrs by LC-MS/MS analysis; type: ADME, organism-based, Macaca fascicularis
[11] = Plasma clearance in Beagle dog at 0.5 mg/kg, iv administered as single dose measured upto 24 hrs by LC-MS/MS analysis; type: ADME, organism-based, Canis lupus familiaris
[12] = Volume of distribution at steady state in cynomolgus monkey at 0.5 mg/kg, iv administered as single dose measured upto 24 hrs by LC-MS/MS analysis; type: ADME, organism-based, Macaca fascicularis; settings: in vivo, read-out: Vdss
[13] = Volume of distribution at steady state in Beagle dog at 0.5 mg/kg, iv administered as single dose measured upto 24 hrs by LC-MS/MS analysis; type: ADME, organism-based, Canis lupus familiaris; settings: in vivo, read-out: Vdss
[14] = Clearance in cynomolgus monkey at 0.5 mg/kg, iv administered as single dose measured upto 24 hrs by LC-MS/MS analysis relative to hepatic blood flow; type: ADME, organism-based, Macaca fascicularis; settings: in vivo
[15] = Oral bioavailability in Sprague-Dawley rat at 5 mg/kg measured upto 8 hrs by LC-MS/MS analysis; type: ADME, organism-based; settings: in vivo
[16] = Oral bioavailability in cynomolgus monkey at 0.5 mg/kg administered as single dose measured upto 24 hrs by LC-MS/MS analysis; type: ADME, organism-based, Macaca fascicularis; settings: in vivo
[17] = Oral bioavailability in Beagle dog at 0.5 mg/kg administered as single dose measured upto 24 hrs by LC-MS/MS analysis; type: ADME, organism-based, Canis lupus familiaris; settings: in vivo
[18] = Clearance in Sprague-Dawley rat at 1 mg/kg, iv measured upto 8 hrs by LC-MS/MS analysis relative to hepatic blood flow; type: ADME, organism-based; settings: in vivo
[19] = Clearance in Beagle dog at 0.5 mg/kg, iv administered as single dose measured upto 24 hrs by LC-MS/MS analysis relative to hepatic blood flow; type: ADME, organism-based, Canis lupus familiaris; settings: in vivo
[20] = Half life in Beagle dog at 0.5 mg/kg, iv administered as single dose measured upto 24 hrs by LC-MS/MS analysis; type: ADME, organism-based, Canis lupus familiaris; settings: in vivo
[21] = Half life in cynomolgus monkey at 0.5 mg/kg, iv administered as single dose measured upto 24 hrs by LC-MS/MS analysis; type: ADME, organism-based, Macaca fascicularis; settings: in vivo
[22] = Half life in Sprague-Dawley rat at 1 mg/kg, iv measured upto 8 hrs by LC-MS/MS analysis; type: ADME, organism-based; settings: in vivo
[23] = Drug excretion in Sprague-Dawley rat bile at 1 mg/kg, iv or 5 mg/kg, po measured up to 8 hrs by LC-MS/MS analysis; type: ADME, organism-based; settings: in vivo
[24] = Drug metabolism in human hepatocytes assessed as oxidation of arene ring at 1 uM measured up to 3 hrs by LC-MS/MS analysis; type: ADME, cell-based, Hepatocyte
[25] = Dissociation constant, basic pKa of compound; type: physicochemical
[26] = Drug level in plasma of FVB transgenic mouse model of inherited erythromelalgia xenografted with human HEK293 cells harboring I848T mutation at 50 mg/kg, po measured after 70 mins by LC-MS/MS analysis; type: ADME, organism-based
[27] = Drug level in plasma of FVB transgenic mouse model of inherited erythromelalgia xenografted with human HEK293 cells harboring I848T mutation at 15 mg/kg, po measured after 70 mins by LC-MS/MS analysis; type: ADME, organism-based

| Structure (SMILES) | logD [1] | clearance [4] [mL/min/kg] | CLhep predicted at 1 µM [7] [mL/min/kg] | CLhep predicted at 1 µM [9] [mL/min/kg] | other results |
| --- | --- | --- | --- | --- | --- |
| O=S(=O)(Nc1ccncn1)c1cc2c(cc1F)[C@@H](N1CC[C@H](C(F)(F)F)C[C@@H]1c1ccc(F)cc1)CCO2 | 3.2 | 0.78 to 0.8 | 7.7 | 14 | Kp at 8 h [2]: 4; clearance [3]: 8.3 mL/min/kg; Vd [5]: 0.9 L/kg; pKa [6]: 5.81; Vd [8]: 0.7 L/kg |
| O=S(=O)(Nc1ccncn1)c1cc2c(cc1F)[C@@H](N1CC[C@H](C(F)(F)F)C[C@@H]1c1ccncc1)CCO2 | 1.2 | 82 | 13 | 13 | – |
| O=S(=O)(Nc1ncns1)c1ccc2c(c1)OCC[C@@H]2N1CC[C@H](C(F)(F)F)C[C@@H]1c1ccccc1 | 3.5 | – | 11 | 32 | – |
| Cn1nccc1[C@H]1C[C@@H](C(F)(F)F)CCN1[C@H]1CCOc2cc(S(=O)(=O)Nc3ccncn3)c(F)cc21 | 0.9 | 42 | 14 | 14 | – |
| O=S(=O)(Nc1cccnn1)c1cc2c(cc1F)[C@@H](N1CC[C@H](C(F)(F)F)C[C@@H]1c1ccc(F)cc1)CCO2 | 4.3 | 0.71 | < 6.2 | < 10 | pKa [6]: 6.59 |
| O=S(=O)(Nc1ncns1)c1cc(F)c(CN2CC[C@@H](C(F)(F)F)C[C@H]2c2ccccc2)cc1F | 2.7 | – | – | – | – |
| O=S(=O)(Nc1ccc(F)cn1)c1cc2c(cc1F)[C@@H](N1CC[C@H](C(F)(F)F)C[C@@H]1c1ccc(F)cc1)CCO2 | 5 | 4.9 | < 6.2 | < 10 | pKa [6]: 8.22 |
| O=S(=O)(Nc1ccncn1)c1cc2c(cc1F)[C@@H](N1CC[C@H](C(F)(F)F)C[C@@H]1c1cc[nH]n1)CCO2 | 1.3 | 93 | 9.1 | 15 | – |
| O=S(=O)(Nc1ccncn1)c1cc2c(cc1F)[C@@H](N1CC[C@H](C(F)(F)F)C[C@@H]1c1cnccn1)CCO2 | 0.5 | 42 | 9 | 25 | – |
| O=S(=O)(Nc1ccncn1)c1cc2c(cc1F)[C@@H](N1CC[C@H](C(F)(F)F)C[C@@H]1c1ccccn1)CCO2 | 1.4 | 14 to 15 | < 6.2 | 17 | clearance [10]: 19 mL/min/kg; clearance [11]: 2.4 mL/min/kg; Vd [12]: 0.66 L/kg; Vd [13]: 0.74 L/kg; clearance [14]: 8 to 44%; bioavailability [15]: 73%; bioavailability [16]: 18%; bioavailability [17]: 32%; clearance [18]: 8 to 44%; clearance [19]: 8 to 44%; half-life [20]: 4.3 h; half-life [21]: 2.1 h; Vd [8]: 1.2 L/kg; half-life [22]: 1.7 h |
| Cn1ccc([C@H]2C[C@@H](C(F)(F)F)CCN2[C@H]2CCOc3cc(S(=O)(=O)Nc4ccncn4)c(F)cc32)n1 | 1.3 | 46 | 8.2 | 41 | – |
| O=S(=O)(Nc1ccncn1)c1cc2c(cc1F)[C@@H](N1CC[C@H](C(F)(F)F)C[C@@H]1c1ccncn1)CCO2 | 0.6 | – | 7.8 | 16 | – |
| O=S(=O)(Nc1ncns1)c1ccc2c(c1)OCC[C@@H]2N1CC[C@H](C(F)(F)F)C[C@@H]1c1ccc(F)cc1 | 3.2 | 62 | 11 | 17 | Kp at 8 h [2]: 202; clearance [3]: 46 mL/min/kg; Vd [5]: 4.8 L/kg; Drug excretion [23]: Active; pKa [6]: 3.26; Vd [8]: 23 L/kg; Drug metabolism [24]: Metabolite_Notdetected |
| O=S(=O)(Nc1ccncn1)c1cc2c(cc1F)[C@@H](N1CC[C@H](C(F)(F)F)C[C@@H]1c1cnco1)CCO2 | 0.9 | 62 | 12 | 12 | – |
| O=S(=O)(Nc1ncns1)c1cc(F)c(CN2CC[C@H](C(F)(F)F)C[C@@H]2c2ccccc2)cc1F | 2.7 | – | – | – | pKa [25]: 5.5; concentration at 70 min [26]: 58 µM; concentration at 70 min [27]: 33 µM |
| O=S(=O)(Nc1ccncn1)c1cc2c(cc1F)[C@@H](N1CC[C@H](C(F)(F)F)C[C@@H]1c1cccnc1)CCO2 | 1.3 | 101 | 15 | 26 | – |
| O=S(=O)(Nc1ccncn1)c1cc2c(cc1F)[C@@H](N1CC[C@H](C(F)(F)F)C[C@@H]1c1cn[nH]c1)CCO2 | 1.1 | 161 | 12 | 18 | – |
| O=S(=O)(Nc1ncns1)c1cc(F)c(CN2CCCC[C@@H]2c2ccccc2)cc1F | 1.9 | – | – | – | – |
| O=S(=O)(Nc1ccon1)c1cc2c(cc1F)[C@@H](N1CC[C@H](C(F)(F)F)C[C@@H]1c1ccc(F)cc1)CCO2 | 2.8 | 2.1 | < 6.2 | 13 | pKa [6]: 4.49 |
| O=S(=O)(Nc1ccncn1)c1cc2c(cc1F)[C@@H](N1CC[C@H](C(F)(F)F)C[C@@H]1c1ccnnc1)CCO2 | 0.2 | – | < 6.2 | < 10 | – |
| O=S(=O)(Nc1ncns1)c1cc(F)c(CN2CCCC[C@H]2c2ccccc2)cc1F | 1.9 | – | – | – | – |
